The target of one test is T1, ULK2 kinase (Homo sapiens, UniProt Q8IYT8).
T1 construct: purchased Eurofins 14-772
The test can be described thus: Biochemical assay for ULK2 (coupled pyruvate kinase/lactate dehydrogenase assay). The conditions noted are these: 9.7 nM ULK2 (Eurofins), myelin basic protein, 1 mM ATP; read-out: ULK2.2. A digest of the protocol:
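Continuous PK/LDH-coupled NADH-oxidation assay with 9.7 nM ULK2, 0.25 mg/mL myelin basic protein and 1 mM ATP in Tris pH 7.5, MgCl2, DTT buffer, 1% DMSO. A340 followed 6 h at 30° C; rates from 2-3 h window converted to % inhibition, IC50 from four-parameter fit.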

A further test concerns the target T2, ULK1 kinase (Homo sapiens, UniProt O75385).
T2 construct: purchased Eurofins 14-959
T2 sequence (O75385 with tags, fused parts or gaps): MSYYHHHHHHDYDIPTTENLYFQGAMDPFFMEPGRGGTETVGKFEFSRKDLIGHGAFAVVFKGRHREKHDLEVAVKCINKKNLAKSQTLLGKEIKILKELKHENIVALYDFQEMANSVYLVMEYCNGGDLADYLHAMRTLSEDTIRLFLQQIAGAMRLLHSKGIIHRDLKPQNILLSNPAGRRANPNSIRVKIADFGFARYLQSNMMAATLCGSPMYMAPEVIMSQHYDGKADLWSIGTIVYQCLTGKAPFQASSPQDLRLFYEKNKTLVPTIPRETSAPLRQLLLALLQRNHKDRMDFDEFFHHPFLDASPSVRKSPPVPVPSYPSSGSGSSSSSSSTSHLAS
The test is described as follows: Biochemical assay for ULK1.2 (coupled pyruvate kinase/lactate dehydrogenase assay). Conditions: 19 nM ULK1 (Eurofins), myelin basic protein, 1 mM ATP. A digest of the protocol: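 NADH-coupled PK/LDH read-out at 340 nm, run with 19 nM ULK1, 0.25 mg/mL myelin basic protein and 1 mM ATP. Buffer was 100 mM Tris pH 7.5 with 15 mM MgCl2 and 1% DMSO final. Monitoring was continuous for 6 hours at 30° C; rates from the 2-3 h window were converted to percent inhibition and fitted to a four-parameter curve for IC50.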

The subject of test [1] is phospho-Serine 318 ATG13 (pATG13), ULK kinase substrate, in A549 (KRAS mutant) cells. The test can be described thus: pATG13 levels of mutant KRas A549 cells after treatment with ULK inhibitors in combination with trametinib (ELISA). The conditions noted are these: with 250 nM trametinib. The format is cell-based, human. In short, it runs like this: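 A549 cells grown overnight were treated overnight at 37 °C with a dose response of test compound plus 250 nM trametinib (final) or DMSO. Lysates were assayed by sandwich ELISA, with total ATG13 capture and biotinylated pS318-ATG13 detection read at 450 nm minus 540 nm, giving % phosphorylation against control and IC50.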
Background: An ELISA detects its analyte on a solid surface through an enzyme-linked reagent.

Test [2] deals with phospho-Serine 318 ATG13 (pATG13) in HCT-116 cells. The test can be described thus: pATG13 levels of mutant KRas HCT-116 cells after treatment with ULK inhibitors in combination with trametinib (ELISA). Type of test: cell-based, human. How it is done:
Example 179. pATG13 Levels of Mutant KRas HCT-116 Cells after Treatment with ULK Inhibitors in Combination with Trametinib
(§1) HCT-116 human colon cancer cells (10000 cells/well) were added to a 384-well tissue-culture treated plate in 50 μL of pre-warmed DMEM medium supplemented with 10% characterized fetal bovine serum (Invitrogen, Carlsbad, Calif.), 100 units/mL penicillin G, and 100 μg/mL streptomycin and allowed to grow overnight at 37° C., 5% CO2, and 95% humidity. The following day, 10 μL of media containing trametinib or DMSO as a control was added to wells. The final concentration of trametinib in wells was 250 nM. A dose response of a test compound (0.6 μL per well) was added. DMSO (0.6 μL) was added to control wells. The plate was briefly shaken to mix wells and then incubated at 37° C. overnight. The next day, the media was aspirated and cells were washed with Dulbecco's Phosphate Buffered Saline (Gibco). Cells were lysed using MPER lysis buffer (Pierce, Rockford, Ill.) containing Halt Phosphatase and Protease Inhibitors (Pierce, Rockford, Ill.) and Phosphatase inhibitor cocktail 2 (Sigma, St. Louis, Mo.) at 4° C. for 10 minutes with shaking.
(§2) Cellular levels of phospho-Serine 318 ATG13 (pATG13) were measured via an ELISA method. Total ATG13 Antibody (Cell Signaling Cat #13273) was used to coat the wells. The plate was incubated at 4° C. overnight and washed with ELISA wash buffer (Biolegend Cat #421601). The wells were then blocked with assay diluent (Biolegend Cat #421203) for 1 hour at room temperature. Plate wells were washed with ELISA wash buffer. Cell lysate was added to wells and incubated at room temperature for 2 hours. Plate wells were washed with ELISA wash buffer. Biotinylated pS318-ATG13 antibody (Rockland Immunochemicals Cat #600-401-C49) was diluted in assay diluent and added to each well and incubated at room temperature for 1 hour. Plate wells were washed with ELISA wash buffer. Streptavidin linked to horseradish peroxidase (Thermo Fisher Cat #21140) was diluted in assay diluent and added to each well and incubated at room temperature for 1 hour. Plate wells were washed with ELISA wash buffer. High sensitivity TMB substrate (Biolegend Cat #421101) was added to each well and incubated at room temperature for 20 minutes. The reaction was stopped with 2N Sulfuric Acid. The plate was analyzed at on a plate reader measuring absorbance at 450 nm and 540 nm (background). Signal was calculated by first subtracting the background absorbance at 540 nm from the absorbance at 450 nm for each well. Next, the background corrected absorbance at 450 nm from blank wells was subtracted from test wells. Data was compared to control wells to determine % ATG13 phosphorylation. GraphPad Prism was used to calculate IC50 values.

Test [3] relates to phospho-Serine 318 ATG13 (pATG13) in MiaPaCa-2 cells. The test can be described thus: pATG13 levels of mutant KRas MiaPaCa-2 cells after treatment with ULK inhibitors in combination with trametinib (ELISA). The format is cell-based, human. As for the experimental part: Example 178. pATG13 Levels of Mutant KRas MiaPaCa-2 Cells after Treatment with ULK Inhibitors in Combination with Trametinib
as §1, with “MiaPaCa-2” for “HCT-116”, “pancreatic” for “colon”, “G,” for “G, and”, “streptomycin, and 2.5% Horse Serum” for “streptomycin”
as §2

pIC50: −log10 of the molar value.

T1 sequence (Q8IYT8 with tags, fused parts or gaps): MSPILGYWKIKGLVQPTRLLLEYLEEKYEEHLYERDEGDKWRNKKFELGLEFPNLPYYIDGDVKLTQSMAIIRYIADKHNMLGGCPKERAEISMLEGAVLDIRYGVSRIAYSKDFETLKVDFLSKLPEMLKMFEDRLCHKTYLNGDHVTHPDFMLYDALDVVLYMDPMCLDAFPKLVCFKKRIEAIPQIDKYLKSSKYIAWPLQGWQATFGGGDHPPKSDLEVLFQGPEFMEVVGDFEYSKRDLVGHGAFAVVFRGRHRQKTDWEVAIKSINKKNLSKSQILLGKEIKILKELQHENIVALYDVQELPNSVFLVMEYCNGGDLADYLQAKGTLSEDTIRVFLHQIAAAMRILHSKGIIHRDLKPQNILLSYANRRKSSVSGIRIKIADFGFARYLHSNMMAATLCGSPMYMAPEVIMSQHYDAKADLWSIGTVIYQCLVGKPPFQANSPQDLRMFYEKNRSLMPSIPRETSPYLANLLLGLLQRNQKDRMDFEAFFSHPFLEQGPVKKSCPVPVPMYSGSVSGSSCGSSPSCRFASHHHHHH

On to `O=C1CCCCN1CCCNc1nc(Nc2cnn(C3CCNCC3)c2)ncc1C(F)(F)F` [Example 7], for which the pIC50 is 7.60 to 9.00 at ULK2 kinase, 7.60 to 9.00 at ULK1 kinase, 7.00 to 8.00 in test [1] and 6.52 to 7.00 in test [2].
In the case of `Cc1nn(C2CCNCC2)cc1Nc1ncc(C(F)(F)F)c(NCCCN2CCCCC2=O)n1` [Example 14], the pIC50 on ULK2 kinase was 7.60 to 9.00; against ULK1 kinase, 7.60 to 9.00; in test [1], 6.22 to 6.52; in test [2], 7.00 to 8.00.
In the case of `CCc1nn(C2CCNCC2)cc1Nc1ncc(C(F)(F)F)c(NCCCN2CCCCC2=O)n1` [Example 40], the pIC50 against ULK1 kinase was 7.60 to 9.00; in test [1], 6.22 to 6.52; in test [3] it was 7.00 to 8.00; in test [2], 7.00 to 8.00.
In the case of `CCc1nn(C2CCN(C)CC2)cc1Nc1ncc(C(F)(F)F)c(NCCCN2CCCOCC2=O)n1` [Example 109], the pIC50 is 7.00 to 7.60 at ULK1 kinase, 6.52 to 7.00 in test [1], 6.52 to 7.00 in test [3] and 7.00 to 8.00 in test [2].

These data come from patent US11518758B2, “Heteroarylaminopyrimidine amide autophagy inhibitors and methods of use thereof” (Deciphera Pharmaceuticals, LLC, priority 2019, dated 2022).
